Laboratory results reported in patent publication US20240043427A1 (Gilead Sciences, Inc., priority 2020, published 2024).
pIC50: −log10 of the molar value.

What follows are compounds tested against CD73 (Homo sapiens (Human), UniProt P21589). Details: 1 mM NaH2PO4 in enzyme buffer, CD73 0.3 nM, AMP 15 uM.
Format: biochemical
Description: Compound serial dilutions were pre-spotted into Thermo Nunc assay plate. 50 uL CD73 enzyme buffer (CD73 purchased from R&D system=0.6 nM, 25 mM Tris, pH 7.4, 5 mM MgCl2, 1 mM NaH2PO4) was added into the assay plate and incubate for 15 mins. […] After incubation for 60 mins, the supernatant (20 uL) was transferred into 384-well NUNC plate pre-filled with 60 uL Quench buffer (80% organic and 20% water+0.1% FA) with internal standard. The plate was spun down at 4500 rpm for 20 mins, then 20 uL of supernatant was transferred to another Nunc plate prefilled with 80 uL of water. The samples were analyzed using Rapid fire.

CD73, sequence (P21589 27-574): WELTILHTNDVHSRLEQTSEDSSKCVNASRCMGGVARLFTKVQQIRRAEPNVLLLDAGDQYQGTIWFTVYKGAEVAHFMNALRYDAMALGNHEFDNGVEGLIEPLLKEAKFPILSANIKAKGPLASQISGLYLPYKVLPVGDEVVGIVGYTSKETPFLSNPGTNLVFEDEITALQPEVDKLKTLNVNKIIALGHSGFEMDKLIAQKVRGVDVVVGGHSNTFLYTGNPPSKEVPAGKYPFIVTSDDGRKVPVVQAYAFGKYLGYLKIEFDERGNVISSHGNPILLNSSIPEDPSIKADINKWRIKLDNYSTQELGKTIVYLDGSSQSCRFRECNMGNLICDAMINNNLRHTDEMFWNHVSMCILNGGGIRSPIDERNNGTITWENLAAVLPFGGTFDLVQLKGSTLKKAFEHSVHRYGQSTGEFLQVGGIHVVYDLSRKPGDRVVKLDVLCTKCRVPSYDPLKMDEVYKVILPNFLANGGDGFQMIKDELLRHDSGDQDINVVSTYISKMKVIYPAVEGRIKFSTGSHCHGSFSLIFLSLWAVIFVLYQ

Compound	pIC50
N#Cc1ccc([C@H]2C[C@@H]2c2cc(-c3c[nH]c(=O)[nH]c3=O)nn3ccnc23)c(F)c1 (racemic) [Example 407, 4-((1S,2S)-2-(6-(2,4-dioxo-1,2,3,4-tetrahydropyrimidin-5-yl)imidazo[1,2-b]pyridazin-8-yl)cyclopropyl)-3-fluorobenzonitrile]	8.72
N#Cc1cccc([C@H]2C[C@@H]2c2cc(-c3c[nH]c(=O)[nH]c3=O)nn3ccnc23)c1F (racemic) [Example 408, 3-((1S,2S)-2-(6-(2,4-dioxo-1,2,3,4-tetrahydropyrimidin-5-yl)imidazo[1,2-b]pyridazin-8-yl)cyclopropyl)-2-fluorobenzonitrile]	8.63
N#Cc1ccc([C@H]2C[C@@H]2c2cc(-c3c[nH]c(=O)[nH]c3=O)nn3ccnc23)cc1C(F)(F)F (racemic) [Example 411, 4-((1S,2S)-2-(6-(2,4-dioxo-1,2,3,4-tetrahydropyrimidin-5-yl)imidazo[1,2-b]pyridazin-8-yl)cyclopropyl)-2-(trifluoromethyl)benzonitrile]	8.21
N#Cc1cc([C@H]2C[C@@H]2c2cc(-c3c[nH]c(=O)[nH]c3=O)nn3ccnc23)ccc1C(F)(F)F (racemic) [Example 412, 5-((1S,2S)-2-(6-(2,4-dioxo-1,2,3,4-tetrahydropyrimidin-5-yl)imidazo[1,2-b]pyridazin-8-yl)cyclopropyl)-2-(trifluoromethyl)benzonitrile]	8.22
N#Cc1ccc([C@H]2C[C@@H]2c2cc(-c3c[nH]c(=O)[nH]c3=O)nn3ccnc23)cc1OC(F)(F)F (racemic) [Example 413, 4-((1S,2S)-2-(6-(2,4-dioxo-1,2,3,4-tetrahydropyrimidin-5-yl)imidazo[1,2-b]pyridazin-8-yl)cyclopropyl)-2-(trifluoromethoxy)benzonitrile]	8.52
N#Cc1cc([C@H]2C[C@@H]2c2cc(-c3c[nH]c(=O)[nH]c3=O)nn3ccnc23)ccc1OC(F)(F)F (racemic) [Example 414, 5-((1S,2S)-2-(6-(2,4-dioxo-1,2,3,4-tetrahydropyrimidin-5-yl)imidazo[1,2-b]pyridazin-8-yl)cyclopropyl)-2-(trifluoromethoxy)benzonitrile]	8.55
O=c1[nH]cc(-c2cc(N3CC(Oc4ccc(C(F)(F)F)cn4)C(F)(F)C3)c3ncnn3n2)c(=O)[nH]1 (racemic) [Example 432, 5-(8-(3,3-difluoro-4-((5-(trifluoromethyl)pyridin-2-yl)oxy)pyrrolidin-1-yl)-[1,2,4]triazolo[1,5-b]pyridazin-6-yl)pyrimidine-2,4(1H,3H)-dione]	9.82
O=c1[nH]cc(-c2cc(N3CCC(CC(F)(F)F)C3)c3nccn3n2)c(=O)[nH]1 (racemic) [Example 452, 5-(8-(3-(2,2,2-trifluoroethyl)pyrrolidin-1-yl)imidazo[1,2-b]pyridazin-6-yl)pyrimidine-2,4(1H,3H)-dione]	7.02
O=c1[nH]cc(-c2cc(N3CCC(CC(F)F)C3)c3nccn3n2)c(=O)[nH]1 (racemic) [Example 453, 5-(8-(3-(2,2-difluoroethyl)pyrrolidin-1-yl)imidazo[1,2-b]pyridazin-6-yl)pyrimidine-2,4(1H,3H)-dione]	7.12
O=c1[nH]cc(-c2cc([C@H]3C[C@@H]3c3nc4ccccc4[nH]3)c3nccn3n2)c(=O)[nH]1 (racemic) [Example 461, 5-(8-((1S,2S)-2-(1H-benzo[d]imidazol-2-yl)cyclopropyl)imidazo[1,2-b]pyridazin-6-yl)pyrimidine-2,4(1H,3H)-dione]	8.59
O=C(Nc1ccccc1)[C@H]1C[C@@H]1c1cc(-c2c[nH]c(=O)[nH]c2=O)nn2ccnc12 (racemic) [Example 462, (1S,2S)-2-(6-(2,4-dioxo-1,2,3,4-tetrahydropyrimidin-5-yl)imidazo[1,2-b]pyridazin-8-yl)-N-phenylcyclopropane-1-carboxamide]	8.03
CC(C)(O)[C@H]1C[C@@H]1c1cc(-c2c[nH]c(=O)[nH]c2=O)nn2ccnc12 (racemic) [Example 463, 5-(8-((1S,2S)-2-(2-hydroxypropan-2-yl)cyclopropyl)imidazo[1,2-b]pyridazin-6-yl)pyrimidine-2,4(1H,3H)-dione]	7.21
O=c1[nH]cc(-c2cc([C@H]3C[C@@H]3c3ccc(F)c(F)c3F)c3nccn3n2)c(=O)[nH]1 (racemic) [Example 464, 5-(8-((1S,2S)-2-(2,3,4-trifluorophenyl)cyclopropyl)imidazo[1,2-b]pyridazin-6-yl)pyrimidine-2,4(1H,3H)-dione]	8.83
N#Cc1ccc(F)c([C@H]2C[C@@H]2c2cc(-c3c[nH]c(=O)[nH]c3=O)nn3ccnc23)c1 (racemic) [Example 466, 3-((1S,2S)-2-(6-(2,4-dioxo-1,2,3,4-tetrahydropyrimidin-5-yl)imidazo[1,2-b]pyridazin-8-yl)cyclopropyl)-4-fluorobenzonitrile]	8.46
O=c1[nH]cc(-c2cc([C@H]3C[C@@H]3c3c(F)ccc(F)c3F)c3nccn3n2)c(=O)[nH]1 (racemic) [Example 468, 5-(8-((1S,2S)-2-(2,3,6-trifluorophenyl)cyclopropyl)imidazo[1,2-b]pyridazin-6-yl)pyrimidine-2,4(1H,3H)-dione]	8.78
O=c1[nH]cc(-c2cc([C@H]3C[C@@H]3c3cc4c(cn3)cnn4CC(F)(F)F)c3ncc(Cl)n3n2)c(=O)[nH]1 (racemic) [Example 471, 5-(3-chloro-8-((1S,2S)-2-(1-(2,2,2-trifluoroethyl)-1H-pyrazolo[4,3-c]pyridin-6-yl)cyclopropyl)imidazo[1,2-b]pyridazin-6-yl)pyrimidine-2,4(1H,3H)-dione]	9.15
CC1(C)C(=O)N(CC(F)(F)F)c2cc([C@H]3C[C@@H]3c3cc(-c4c[nH]c(=O)[nH]c4=O)nn4ccnc34)ncc21 (racemic) [Example 718, 5-[8-[(1S,2S)-2-[3,3-dimethyl-2-oxo-1-(2,2,2-trifluoroethyl)pyrrolo[3,2-c]pyridin-6-yl]cyclopropyl]imidazo[1,2-b]pyridazin-6-yl]-1H-pyrimidine-2,4-dione]	8.51
O=c1[nH]cc(-c2cc([C@H]3C[C@@H]3c3cc(OCC(F)(F)F)c4ncccc4c3)c3nccn3n2)c(=O)[nH]1 (racemic) [Example 732, 5-(8-((1S,2S)-2-(8-(2,2,2-trifluoroethoxy)quinolin-6-yl)cyclopropyl)imidazo[1,2-b]pyridazin-6-yl)pyrimidine-2,4(1H,3H)-dione]	8.58
O=C1N(CC2(F)CC2)c2cc([C@H]3C[C@@H]3c3cc(-c4c[nH]c(=O)[nH]c4=O)nn4c(F)cnc34)ccc2C12CC2 (racemic) [Example 735, 5-(3-fluoro-8-((1S,2S)-2-(1′-((1-fluorocyclopropyl)methyl)-2′-oxospiro[cyclopropane-1,3′-indolin]-6′-yl)cyclopropyl)imidazo[1,2-b]pyridazin-6-yl)pyrimidine-2,4(1H,3H)-dione]	8.53
O=C1N(CC(F)(F)F)c2cc([C@H]3C[C@@H]3c3cc(-c4c[nH]c(=O)[nH]c4=O)nn4ccnc34)c(F)cc2C12CC2 (racemic) [Example 748, 5-(8-((1S,2S)-2-(5′-fluoro-2′-oxo-1′-(2,2,2-trifluoroethyl)spiro[cyclopropane-1,3′-indolin]-6′-yl)cyclopropyl)imidazo[1,2-b]pyridazin-6-yl)pyrimidine-2,4(1H,3H)-dione]	8.60
